Data reported in publication PMC10709440, “High-throughput ligand profile characterization in novel cell lines expressing seven heterologous insect olfactory receptors for the detection of volatile plant biomarkers” (Scientific Reports, 2023).
Like-named read-outs stand apart in the source and are kept apart here.

Experiments:
Drosophila OR47a = molecular target: T1, Drosophila OR47a (Drosophila melanogaster, UniProt P81921); experiment: Calcium ion fluorescence (GCaMP6) assay, OR47a stable HEK293 cell line; type: cell-based; details: for OR47a response (VUAA1-normalized) at 1 μM / OR47a response (VUAA1-normalized) at 10 μM / OR47a response (VUAA1-normalized) at 100 μM / Average response: OR47a cell line; for Average response: mean of biological replicates
T1 construct: expressed in transfected cells
T1 sequence (P81921 1-385): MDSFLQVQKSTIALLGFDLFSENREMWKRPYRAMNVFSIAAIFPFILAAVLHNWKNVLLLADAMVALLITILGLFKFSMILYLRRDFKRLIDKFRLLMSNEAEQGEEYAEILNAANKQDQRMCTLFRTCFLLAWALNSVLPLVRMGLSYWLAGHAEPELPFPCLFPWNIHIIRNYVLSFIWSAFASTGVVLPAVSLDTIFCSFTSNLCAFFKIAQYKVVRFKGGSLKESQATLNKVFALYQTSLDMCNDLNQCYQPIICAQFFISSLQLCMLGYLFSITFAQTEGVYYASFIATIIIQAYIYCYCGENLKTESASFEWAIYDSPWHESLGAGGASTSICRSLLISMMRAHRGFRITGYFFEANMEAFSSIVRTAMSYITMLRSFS
T1 sequence (Q9VNB5 1-486 partner): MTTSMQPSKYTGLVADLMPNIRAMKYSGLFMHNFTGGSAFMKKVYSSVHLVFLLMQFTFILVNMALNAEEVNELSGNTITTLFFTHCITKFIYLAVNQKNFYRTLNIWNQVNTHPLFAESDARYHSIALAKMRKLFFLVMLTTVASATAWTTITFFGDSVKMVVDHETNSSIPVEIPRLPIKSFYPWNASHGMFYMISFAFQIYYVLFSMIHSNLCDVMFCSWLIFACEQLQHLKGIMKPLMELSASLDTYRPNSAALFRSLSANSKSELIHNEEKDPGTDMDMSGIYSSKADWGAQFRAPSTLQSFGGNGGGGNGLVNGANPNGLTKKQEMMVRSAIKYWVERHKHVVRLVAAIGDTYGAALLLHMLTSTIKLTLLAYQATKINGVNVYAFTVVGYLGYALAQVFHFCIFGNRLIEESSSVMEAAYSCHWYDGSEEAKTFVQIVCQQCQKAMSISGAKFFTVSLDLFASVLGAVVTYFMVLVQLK
Outline: (§1)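 HEK293 lines stably expressing each Drosophila OR with GCaMP6, doxycycline-induced (1 μg/mL) 48 or 72 h. Fluorescence recorded 5 s baseline then 30 s after VOC injection at pH 7.3; ΔF=(FMAX−F0)/F0, normalized to 50 µM VUAA1 response per line, triplicate wells averaged; concentration series 0.01–100 μM.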

Drosophila OR98a = molecular target: T2, Drosophila OR98a (Drosophila melanogaster, UniProt Q9VAZ3); experiment: Calcium ion fluorescence (GCaMP6) assay, OR98a stable HEK293 cell line; type: cell-based; details: for OR98a response (VUAA1-normalized) at 1 μM / OR98a response (VUAA1-normalized) at 10 μM / OR98a response (VUAA1-normalized) at 100 μM / Average response: OR98a cell line; for Average response: average of biological replicates, fraction of VUAA1 response
T2 construct: expressed in transfected cells
T2 sequence (Q9VAZ3 1-397): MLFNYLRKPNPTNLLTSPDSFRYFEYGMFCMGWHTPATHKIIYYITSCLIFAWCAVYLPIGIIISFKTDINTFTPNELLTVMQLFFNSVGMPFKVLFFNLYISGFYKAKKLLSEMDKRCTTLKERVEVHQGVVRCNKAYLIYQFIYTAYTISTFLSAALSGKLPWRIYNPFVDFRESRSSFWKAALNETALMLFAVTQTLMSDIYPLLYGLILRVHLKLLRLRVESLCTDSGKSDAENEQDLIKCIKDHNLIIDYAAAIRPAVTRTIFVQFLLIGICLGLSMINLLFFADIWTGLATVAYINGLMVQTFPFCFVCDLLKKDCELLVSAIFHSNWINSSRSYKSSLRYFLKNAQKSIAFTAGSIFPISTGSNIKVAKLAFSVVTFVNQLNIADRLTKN
T2 sequence (Q9VNB5 1-486 partner): T1 sequence (Q9VNB5 1-486 partner)
Outline: as §1

[1] = ligand concentration 1 (unit not given), threshold 0.05, below shown as 0
[2] = ligand concentration 10 (unit not given), threshold 0.05, below shown as 0
[3] = ligand concentration 100 (unit not given), threshold 0.05, below shown as 0
[4] = HEK293, read-out: Average response
[5] = HEK293, read-out: OR47a Average response (VUAA1-normalized)
[6] = HEK293, read-out: OR47a response (VUAA1-normalized response)
[7] = HEK293, read-out: OR98a response (VUAA1-normalized response)
[8] = concentration 1, normalized fluorescence change, values below 0.05 threshold given as 0
[9] = concentration 10, normalized fluorescence change, values below 0.05 threshold given as 0
[10] = concentration 100, normalized fluorescence change, values below 0.05 threshold given as 0
[11] = HEK293, read-out: OR98a Average response (VUAA1-normalized)
[12] = ligand concentration 1 (unit not given), 0.05 threshold, values below shown as 0
[13] = ligand concentration 10 (unit not given), 0.05 threshold, values below shown as 0
[14] = ligand concentration 100 (unit not given), 0.05 threshold, values below shown as 0

| Molecule | OR47a response (VUAA1-normalized) at 1 μM (Drosophila OR47a; VOC concentration 1 μM) | OR47a response (VUAA1-normalized) at 10 μM (Drosophila OR47a; VOC concentration 10 μM) | Average response (Drosophila OR47a; odorant cc. 1 µM) | Average response (Drosophila OR47a; odorant cc. 10 µM) | Average response (Drosophila OR47a; odorant cc. 100 µM) | activation at 1 µM (Drosophila OR98a; [4]) | activation at 10 µM (Drosophila OR98a; [4]) | activation at 100 µM (Drosophila OR98a; [4]) | activation at 1 µM (Drosophila OR47a; [6]) | activation at 10 µM (Drosophila OR47a; [6]) | activation at 100 µM (Drosophila OR47a; [6]) | activation at 1 µM (Drosophila OR98a; [7]) | activation at 10 µM (Drosophila OR98a; [7]) | activation at 100 µM (Drosophila OR98a; [7]) | DF norm AVERAGE OR47a (Drosophila OR47a; [8]) | DF norm AVERAGE OR47a (Drosophila OR47a; [9]) | DF norm AVERAGE OR47a (Drosophila OR47a; [10]) | DF norm AVERAGE OR98a (Drosophila OR98a; [8]) | DF norm AVERAGE OR98a (Drosophila OR98a; [9]) | DF norm AVERAGE OR98a (Drosophila OR98a; [10]) | further results |
| --- | --- | --- | --- | --- | --- | --- | --- | --- | --- | --- | --- | --- | --- | --- | --- | --- | --- | --- | --- | --- | --- |
| C=CC(C)(O)CCC=C(C)C (stereo not drawn) [linalool] | 0.00 | 0.00 | 0.00 | 0.0374 | 0.00 | 0% | 0% | 4% | – | – | – | – | – | – | – | – | – | – | – | – | OR47a response (VUAA1-normalized) at 100 μM (Drosophila OR47a; VOC concentration 100 μM): 0.00; DF norm AVERAGE OR47a (Drosophila OR47a; [1]): 0; DF norm AVERAGE OR47a (Drosophila OR47a; [2]): 0; DF norm AVERAGE OR47a (Drosophila OR47a; [3]): 0; OR98a response (VUAA1-normalized) at 1 μM (Drosophila OR98a; VOC concentration 1 μM): 0.00; OR98a response (VUAA1-normalized) at 10 μM (Drosophila OR98a; VOC concentration 10 μM): 0.00; OR98a response (VUAA1-normalized) at 100 μM (Drosophila OR98a; VOC concentration 100 μM): 0.00; DF norm AVERAGE OR98a (Drosophila OR98a; [1]): 0; DF norm AVERAGE OR98a (Drosophila OR98a; [2]): 0; DF norm AVERAGE OR98a (Drosophila OR98a; [3]): 0 |
| CC(=O)OCC(C)C [isobutyl acetate] | – | – | 0.19 | 0.15 | 0.65 | 1.85% | 0% | 6.56% | 19% | 15% | 65% | 0% | 0% | 6.56% | – | – | – | – | – | – | activation at 1 µM (Drosophila OR47a; [5]): 19%; activation at 10 µM (Drosophila OR47a; [5]): 15%; activation at 100 µM (Drosophila OR47a; [5]): 65%; DF norm AVERAGE OR47a (Drosophila OR47a; [1]): 0.1884; DF norm AVERAGE OR47a (Drosophila OR47a; [2]): 0.1518; DF norm AVERAGE OR47a (Drosophila OR47a; [3]): 0.646; DF norm AVERAGE OR98a (Drosophila OR98a; [1]): 0; DF norm AVERAGE OR98a (Drosophila OR98a; [2]): 0; DF norm AVERAGE OR98a (Drosophila OR98a; [3]): 0.0656 |
| Cc1ccc(O)cc1 [4-methylphenol] | – | – | 0.10 | 0.0217 | 0.0542 | 0% | 2% | 2.76% | 10% | 0% | 5.42% | 0% | 0% | 0% | 0.1 | 0 | 0.05422 | 0 | 0 | 0 | – |
| (-)-alpha-cedrene | – | – | 0.00 | 0.00 | 0.02 | – | – | – | – | – | – | – | – | – | 0 | 0 | 0 | 0 | 0 | 0 | OR47a response (VUAA1-normalized response) (Drosophila OR47a; VOC concentration 1 μM): 0.00; OR47a response (VUAA1-normalized response) (Drosophila OR47a; VOC concentration 10 μM): 0.00; OR47a response (VUAA1-normalized response) (Drosophila OR47a; VOC concentration 100 μM): 0.00; OR98a response (VUAA1-normalized response) (Drosophila OR98a; VOC concentration 1 μM): 0.00; OR98a response (VUAA1-normalized response) (Drosophila OR98a; VOC concentration 10 μM): 0.00; OR98a response (VUAA1-normalized response) (Drosophila OR98a; VOC concentration 100 μM): 0.00; Average response (Drosophila OR98a; cc. 1 µM): 0.00; Average response (Drosophila OR98a; cc. 10 µM): 0.0421; Average response (Drosophila OR98a; cc. 100 µM): 0.0341 |
| CCCCC(C)O (stereo not drawn) [2-hexanol] | – | – | 0.04 | 0.00 | 0.05 | 0% | 0% | 14% | 0% | 0% | 5% | 0% | 0% | 14% | 0 | 0 | 0.05091 | 0 | 0 | 0.1401 | activation at 1 µM (Drosophila OR98a; [11]): 0%; activation at 10 µM (Drosophila OR98a; [11]): 0%; activation at 100 µM (Drosophila OR98a; [11]): 14% |
| CCCCCCCCCCCCCC [tetradecane] | 0.00 | 0.00 | 0.02 | 0.03 | 0.00 | 0% | 12% | 10% | – | – | – | – | – | – | – | – | – | – | – | – | OR47a response (VUAA1-normalized) at 100 μM (Drosophila OR47a; VOC concentration 100 μM): 0.00; DF norm AVERAGE OR47a (Drosophila OR47a; [12]): 0; DF norm AVERAGE OR47a (Drosophila OR47a; [13]): 0; DF norm AVERAGE OR47a (Drosophila OR47a; [14]): 0; activation at 1 µM (Drosophila OR98a; [11]): 0%; activation at 10 µM (Drosophila OR98a; [11]): 12%; activation at 100 µM (Drosophila OR98a; [11]): 10%; OR98a response (VUAA1-normalized) at 1 μM (Drosophila OR98a; VOC concentration 1 μM): 0.00; OR98a response (VUAA1-normalized) at 10 μM (Drosophila OR98a; VOC concentration 10 μM): 0.12; OR98a response (VUAA1-normalized) at 100 μM (Drosophila OR98a; VOC concentration 100 μM): 0.10; DF norm AVERAGE OR98a (Drosophila OR98a; [12]): 0; DF norm AVERAGE OR98a (Drosophila OR98a; [13]): 0.1151; DF norm AVERAGE OR98a (Drosophila OR98a; [14]): 0.09569 |
